These results are taken from patent US20230218608A1, “NEW STRATEGY FOR TREATING PANCREATIC CANCER” (INSERM (INSTITUT NATIONAL DE LA SANTÉ ET DE LA RECHERCHE …, priority 2020, published 2023).

One experiment deals with PDAC012T xenograft. As to the kind of experiment: Subcutaneous PDAC xenograft, tumor growth. The experiment is classed as in vivo, mice. The note with it: one month IP; Gemcitabine 120 mg/kg twice a week; intermediate responder. The procedure:
(§1) We assessed the FAO inhibition impact in vivo using the drug Perhexiline in combination with Gemcitabine. We performed subcutaneous xenografts in immunodeficient mice using four different primary PDAC cells. Recipient mice were 6-week-old female Swiss nude mice Crl:Nu(lco)-Foxn1nu purchased from Charles River, France. To obtain the xenografts, subcutaneous tumors from initial mouse donors were removed and finely minced with a scalpel. Then, 150 mg of tumor's pieces were mixed with 50 μl of Matrigel and implanted with a trocar (10 Gauge) in the subcutaneous space of anesthetized mice. Tumor volume was measured twice per week using a digital caliper and using the formula V=lenght×(width)/2. When tumor volume reached 200 mm^3, mice were randomly assigned in a treatment scheme:
(§2) a) Gemcitabine: 120 mg/kg twice a week
(§3) b) Perhexiline: 5 mg/kg every other day
(§4) c) Combination treatment: Gemcitabine plus Perhexiline with the same described indications
(§5) d) Vehicle: PBS in the case of Gemcitabine treatment controls and 3% DMSO in PBS for combination treatment controls.
(§6) Mice were treated by intraperitoneal injection during one month, and mice in which tumor volume reached 1.5 cm^3 during this period were ethically sacrificed and tumors removed.

The next experiment concerns PDAC032T xenograft. As to the kind of experiment: Subcutaneous PDAC xenograft, tumor growth. The experiment is classed as in vivo, mice. The note with it: one month IP; Gemcitabine 120 mg/kg twice a week; low responder. The procedure:
as §1, §2, §3, §4, §5, §6

For another experiment, the system named is PDAC084T xenograft. Description: Subcutaneous PDAC xenograft, tumor growth. The experiment is classed as in vivo, mice. The note with it: one month IP; Gemcitabine 120 mg/kg twice a week, Perhexiline 5 mg/kg every other day; high responder. The procedure:
as §1, §2, §3, §4, §5, §6

The test system of another experiment is PDAC cells. Description: Dose-response viability experiments (Crystal violet viability assay). The experiment is classed as cell-based, human. The note with it: 72 h; for Relative cell viability, mean of the treated cells: compared to non-treated cells. The procedure: We used 21 PDAC primary cells obtained from Patient-Derived Xenografts (PDX) from the PaCaOmics cohort, in which patients were included under the Paoli-Calmettes Institute clinical trial number 2011-A01439-32. Consent forms of informed patients were collected and registered in a central database. PDAC cells were obtained and maintained in serum-free ductal media (SFDM) as described, and incubated at 37° C. in a 5% CO2 incubator. Cell lines were monthly tested for Mycoplasma contamination and found to be negative.
We tested the sensitivity of PDAC cells to three different drugs targeting the FAO pathway: Etomoxir, Perhexiline, and Trimetazidine (all provided by Sigma-Aldrich, Saint-Quentin Fallavier, France), and to the standard chemotherapy Gemcitabine (Gemzar, Eli Lilly & Co).
Cells were seeded in 96-well plates (5,000 cells per well) and 24 h later, the medium was supplemented with increasing concentrations of the drugs in triplicates. For the combination treatment, we used Perhexiline at 5 μM with increasing doses of Gemcitabine. Cell viability was determined 72 h later by Crystal violet viability assay, which is independent from cell metabolism. Briefly, cells were fixed in Glutaraldehyde 1%, washed twice with PBS, stained with crystal violet 0.1% for 10 min, and then washed three times with PBS. Crystals were solubilized in SDS 1%, and absorbance was measured at 600 nm using an Epoch-Biotek spectrophotometer.

In a further experiment the test system is four PDAC xenografts. As to the kind of experiment: Subcutaneous PDAC xenografts, tumor growth (four models overall). It is filed as in vivo, mice. The note with it: Perhexiline 5 mg/kg IP every other day, one month. The procedure: as §1, §2, §3, §4, §5, §6
A further experiment concerns four PDAC cells. Description: AnnexinV/PI apoptosis assay (flow cytometry). It is filed as cell-based, human. The note with it: Perhexiline 7 μM, 72 h. How it is done: Cells were seeded in 6-well plates in duplicates (150 000 cells per well) and the day after, the corresponding treatment was administered. We treated four PDAC cells with 7 μM of Perhexiline for 72 h (FIG. 5A), and in combination with 1 μM of Gemcitabine for 24 h for the PDAC084T cells. After the treatment period, cells were detached with Accutase, and resuspended in Annexin V-binding buffer (Biolegend). Cell death was determined using the Annexin V and Propidium Iodide (PI) staining (Biolegend), for apoptosis and necrosis, respectively. Ten thousand events per sample were acquired in a MAC SQuant-VYB (Miltenyi Biotec) and data analysis was done with the FlowJo software.
For orientation: Flow cytometry measures light scatter and fluorescence of single cells or particles in a stream.

The next experiment relates to PDAC084T cells. As to the kind of experiment: Real-time metabolic analysis (Seahorse XF Cell Mito Stress Test). The experiment is classed as cell-based, human. The note with it: Perhexiline 10 μM, 6 h. The procedure: We tested the impact of […], and the combination treatment (6 hours) on the mitochondrial respiration in PDAC084T cells. Measurements were performed using the Seahorse Bioscience XFe24 Extracellular Flux Analyzer (Agilent). Sixteen hours before the assay, cells at exponential growth were seeded into Seahorse 24-well plates and cultured at 37° C. with 5% CO2. Six hours before the assay, the media was replaced with vehicle DMSO (0.01%), Gemcitabine (1 μM), Perhexiline (10 μM), or the combination of the two drugs. After 6 h treatment, the media was replaced with OXPHOS assay medium (DMEM without phenol red [Sigma-Aldrich reference D5030], 143 mM NaCl, 2 mM glutamine, 1 mM sodium pyruvate and 10 mM glucose, pH 7.4) and the plate was pre-incubated for 1 h at 37° C. in a non-CO2 incubator. OCR was measured under basal conditions, and then after sequential injections of Oligomycin at 1 μM, carbonyl cyanide-p-trifluoromethox-[…]-hydrazon (FCCP, the concentration was optimized for each cell line), and 0.5 μM of Rotenone plus Antimycin A. Oligomycin is a respiratory Complex V inhibitor that allows to calculate ATP production by mitochondria, and FCCP is an uncoupling agent allowing the determination of the maximal respiration and the spare capacity. […]

On to `Nc1ccn([C@@H]2O[C@H](CO)[C@@H](O)C2(F)F)c(=O)n1` [Gemcitabine], for which the Tumor growth entry in the experiment with PDAC012T xenograft is listed as “arresting the tumor growth”; with PDAC032T xenograft, “induces tumor regression”; with PDAC084T xenograft, “arresting the tumor growth”.
For the molecule `C1CCC(C(CC2CCCCN2)C2CCCCC2)CC1` (stereo not shown) [Perhexiline], in the experiment with PDAC cells (Perhexiline 5 μM alone), the Cell viability entry is “no impacts cell viability”. Further, the “Relative cell viability, mean of the treated cells” value with PDAC cells (Perhexiline 7 μM) was 0.72. Besides, the “Tumor growth compared with vehicle-injected mice” value with four PDAC xenografts is on record as “doesn't have any impact on tumor growth”. Moreover, in the experiment with four PDAC cells, the “Cell death (apoptosis induction)” value is reported as “apoptotic inductor”. Further, the “Decrease of mitochondrial respiration (OCR)” value in the experiment with PDAC084T cells is on record as “about 50%”.
For the molecule `CCOC(=O)[C@@]1(CCCCCCOc2ccc(Cl)cc2)CO1` [Etomoxir], in the experiment with PDAC cells (Etomoxir 62.5 μM), the “Relative cell viability, mean of the treated cells” value was 0.75.
On to `COc1ccc(CN2CCNCC2)c(OC)c1OC` [Trimetazidine], for which, in the experiment with PDAC cells (Trimetazidine 62.5 μM, compared with non-treated cells), the Relative cell viability result was “no effect in any cell”.
